The source of these data is patent publication US6787650B1, “Urea compounds, process for producing the same and use thereof” (Takeda Chemical Industries, Ltd., priority 1999, dated 2004).

Counter-ions that a name gives are not always drawn.

For series [1], the target named is T1, human CCR5 (Homo sapiens, UniProt P51681).
T1 construct: expressed in transfected cells
Briefly: Inhibition of [125I]-RANTES binding to CHO/CCR5 cells (CCR5 antagonistic activity). The settings on record: 1.0 μM test compound, 100 pM [125I]-RANTES, room temperature, 40 minutes; for inhibition at 1 µM: read-out: Inhibition Rate (%) at 1.0 μM. As to the method: Cloning of CCR5 gene was carried out by PCR (polymerase chain reaction) from human spleen cDNA. With using 0.5 ng of spleen cDNA (Toyobo, QUICK-Clone cDNA) as a template, PCR was performed in DNA Thermal Cycler 480 (Perkin-Elmer) (reaction conditions: 30 cycles of 95° C. for 1 minute, 60° C. for 1 minute, and 75° C. for 5 minutes) by adding primer set, 5′-[…]-3′ (25 pmol) and 5′-[…]-3′ (25 pmol), which were designed referring to nucleotide sequence of CCR5 gene reported by Samson et al. (Biochemistry, 35 (11), 3362-3367 (1996)) and by using TaKaRa EX Taq (Takara Shuzo). The resultant PCR product was subjected to agarose gel electrophoresis to collect about 1.0 kb DNA fragment, which was subjected to Original TA Cloning Kit (Funakoshi) to carry out cloning of CCR5 gene.
The plasmid obtained in the above (1) was digested with restriction enzymes XbaI (Takara Shuzo) and BamHI (Takara Shuzo) and subjected to agarose gel electrophoresis to collect about 1.0 kb DNA fragment. The DNA fragment was mixed with plasmid pcDNA3.1 (Funakoshi) for expression in animal cells, said plasmid being digested with XbaI and BamHI, and they were ligated with DNA Ligation Kit Ver.2 (Takara Shuzo). The resulting plasmid was subjected to transformation of competent cell of E. coli JM109 (Takara Shuzo) to give plasmid pCKR5.
CHO-K1 cells were grown in 750 ml of tissue culture flask (Becton Dickinson) using Ham's F12 medium (Nihon Pharmaceutical) containing 10% fetal calf serum (Life Tech Oriental) and took off with 0.5 g/L trypsin-0.2 g/L EDTA (Life Tech Oriental). The cells were washed with PBS (Life Tech Oriental), centrifuged (1000 rpm, 5 minutes), and suspended in PBS. With using Gene Pulser (Bio-Rad Laboratories), DNA was introduced into the cells under the conditions shown below. That is, to the cuvette having 0.4 cm gap were added 8×10^6 cells and 10 μg of plasmid pCKR5 for expression of human CCR5, and electroporation was carried out under 0.25 kV of voltage and 960 μF of capacitance. The cells were transferred into Ham's F12 medium containing 10% fetal calf serum, and cultivated for 24 hours. The cells were again took off and centrifuged, and suspended in Ham's F12 medium containing 10% fetal calf serum and 500 μg/ml of geneticin (Life Tech Oriental). The suspension was diluted to give 10^4 cells/ml of the suspension, which was inoculated on 96 well plate (Becton Dickinson) to give geneticin resistant cells.
Then, the resulting geneticin resistant cells were cultivated in 96 well plate (Becton Dickinson), and cells expressing CCR5 were selected from the geneticin resistant cells. That is, in an assay buffer (Ham's F12 medium containing 0.5% BSA and 20 mM HEPES (Wako Pure Chemical, pH 7.2) to which was added 200 pM of [^125I]-RANTES (Amersham) as a ligand, binding reaction was carried out at room temperature for 40 minutes, and the buffer was washed with ice-cooled PBS. To the buffer was added 50 μl/well of 1M NaOH, and the mixture was stirred. Radioactivity was determined with γ-counter to select CHO/CCR5 cells which specifically bound with the ligand.
(4) Evaluation of Test Compounds Based on CCR5 Antagonistic Activity
The CHO/CCR5 were inoculated on 96 well microplate (5×10^4 cells/well) and cultivated for 24 hours. The medium was removed by means of suction, and to each well was added assay buffer containing Test Compound (1 μl) and then 100 pM of [^125I]-RANTES (Amersham) as a ligand. The reaction was carried out at room temperature for 40 minutes, and assay buffer was removed by means of suction. Each well was washed twice with cooled PBS, and 200 μl of Microscinti-20 (Packard Instrument, Inc.) was added to each well. Radioactivity was determined with Top-Count Micro Scintillation Counter (Packard Instrument, Inc.).
According to the method described above, the inhibition rate of the test compounds for CCR5 binding was determined.

In series [2] the test system is HIV-1 Ba-L. Briefly: Inhibitory effect on HIV-1 infection to MAGI-CCR5 cell. It counts as cell-based. The conditions noted are these: Human immunodeficiency virus 1, BAL, 48 h; final concentration 0.16 μM; MAGI-CCR5 cells; 300PFU HIV-1 Ba-L; 37° C., 2 days; blue cells counted. The procedure:
(5) Inhibitory Effect on HIV-1 Infection to MAGI-CCR5 Cell
The plasmid where β-galactosidase gene was ligated to the downstream of HIV-1 LTR was introduced into CD4 positive HeLa cell, to which human CCR^5 was further introduced to obtain transformant MAGI-CCR5. By using said transformant MAGI-CCR5, the degree of HIV-1 infection was calculated from β-galactosidase activity (blue color due to decomposition of 5-bromo-4-chloro-3-indolyl-β-D-galactopyranoside). Specifically, MAGI-CCR5 cells were suspended in DMEM medium containing 10% serum to prepare 5×10^4 cells/ml suspension. To each well of 96 well plate was inoculated 200 μl of the suspension, and the cells were cultivated at 37° C. overnight. The medium was removed by means of suction, and to the residue was added 100 μl of the above medium containing 0.32 μM of Test Compound and 100 μl of the above medium containing 300PFU of HIV-1 Ba-L cells. The final concentration of the test compound was 0.16 μM. The cells were cultivated at 37° C. for 2 days. The medium was removed by means of suction. To the residue was added 200 μl of cell fixative (PBS containing 1% formaldehyde and 0.2% glutaraldehyde), and the mixture was allowed to stand at room temperature for 5 minutes and washed twice with PBS. […] The number of blue cells was counted by microscope and defined as the number of cells infected with HIV-1.

T1 sequence (P51681 whole entry): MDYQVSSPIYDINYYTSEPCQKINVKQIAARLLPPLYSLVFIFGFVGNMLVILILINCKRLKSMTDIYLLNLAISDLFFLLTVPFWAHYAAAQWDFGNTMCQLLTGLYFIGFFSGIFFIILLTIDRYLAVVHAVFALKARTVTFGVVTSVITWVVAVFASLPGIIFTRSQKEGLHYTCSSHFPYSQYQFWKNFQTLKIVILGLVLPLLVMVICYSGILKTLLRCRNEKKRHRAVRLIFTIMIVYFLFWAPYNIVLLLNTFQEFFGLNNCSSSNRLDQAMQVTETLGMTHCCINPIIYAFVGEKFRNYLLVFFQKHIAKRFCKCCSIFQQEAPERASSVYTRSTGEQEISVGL

Take `O=C(Nc1ccccc1)N(CCCN1CCC(Cc2ccccc2)CC1)c1ccccc1` [Example 1, N-[3-(4-Benzyl-1-piperidinyl)propyl]-N-phenyl-N′-phenylurea hydrochloride]: the inhibition at 1 µM in series [1] was 96%.
The compound `O=C(Nc1ccc(Cl)cc1)N(CCCN1CCC(Cc2ccccc2)CC1)c1ccccc1` [Example 2, N-[3-(4-Benzyl-1-piperidinyl)propyl]-N′-(4-chlorophenyl)-N-phenylurea] displayed a melting point of 101 to 103 °C.
On the same count and under the same terms, in the case of `O=C(NC1CCCCC1)N(CCCN1CCC(Cc2ccccc2)CC1)c1ccccc1` [Example 6, N-[3-(4-Benzyl-1-piperidinyl)propyl]-N′-cyclohexyl-N-phenylurea] it was 106 to 108 °C.
As to `CCCNC(=O)N(CCCN1CCC(Cc2ccccc2)CC1)c1ccccc1` [Example 7, N-[3-(4-Benzyl-1-piperidinyl)propyl]-N-phenyl-N′-propylurea], in series [1], the inhibition at 1 µM came to 92%.
On the same count and under the same terms, in the case of `Cc1ccc(N(CCCN2CCC(Cc3ccccc3)CC2)C(=O)Nc2ccc(Cl)cc2)cc1` [Example 10, N-[3-(4-Benzyl-1-piperidinyl)propyl]-N′-(4-chlorophenyl)-N-(4-methylphenyl)urea hydrochloride] it was 100%.
For `O=C(Nc1ccc(Cl)cc1)N(CCCN1CCC(Cc2ccc(F)cc2)CC1)c1ccc(Cl)c(Cl)c1` [Example 12, N′-(4-Chlorophenyl)-N-(3,4-dichlorophenyl)-N-{3-[4-(4-fluorobenzyl)-1-piperidinyl]propyl}urea], the inhibition at 1 µM in series [1] turned out to be 92%.
Take `O=C(Nc1cccc2ccccc12)N(CCCN1CCC(Cc2ccccc2)CC1)c1ccccc1` [Example 13, N-[3-(4-Benzyl-1-piperidinyl)propyl]-N′-(1-naphthyl)-N-phenylurea]: the melting point fell in the range of 124 to 127 °C. Besides, the inhibition at 1 µM in series [1] was 67%.
In the case of `O=C(Nc1ccc(Cl)cc1)N(CCCN1CCC(Cc2ccc(S(=O)(=O)N3CCOCC3)cc2)CC1)c1ccccc1` [Example 71, N′-(4-Chlorophenyl)-N-(3-{4-[4-(4-morpholinylsulfonyl)benzyl]-1-piperidinyl}propyl)-N-phenylurea hydrochloride], the inhibition at 1 µM in series [1] was found to be 98%.
As to `CS(=O)(=O)c1ccc(CC2CCN(CCCN(C(=O)Nc3ccc(Cl)cc3)c3ccccc3)CC2)cc1.Cl` [Example 72, N′-(4-Chlorophenyl)-N-(3-{4-[4-(4-methylsulfonyl)benzyl]-1-piperidinyl}propyl)-N-phenylurea hydrochloride], the “Inhibition Rate (%) at 1.0 μM” value in series [1] was 94%.
`O=C(Nc1ccc(Cl)cc1)N(CCCN1CCC(Cc2ccccc2)CC1)c1ccccc1` [Example 76, N-[3-(4-Benzyl-1-piperidinyl)propyl]-N′-(4-chlorophenyl)-N-phenylurea hydrochloride] showed an inhibition at 0.16 µM in series [2] of 98%.

A word on the inhibition: it is the drop in the measured response relative to a control, in per cent. As a reminder, the melting point is the temperature of the solid-liquid transition.
